In patent publication US12427179B2, “Compositions and methods for diagnosis and treatment of neurodegenerative diseases” (EPITRACKER, INC., priority 2019, dated 2025):

Legend:
Type in all cases: cell-based, human
[1] = tested on: BE3C: Bronchial epithelial cells (IL-1β, IFNγ, TNFα); assay: BioMAP BE3C system; conditions: at the compound's active concentration
From the text: (§1) The Diversity PLUS panel allows test agent characterization in an unbiased way across a broad set of systems modeling various human disease states. These systems are designed to model complex human tissue and disease biology of the vasculature, skin, lung, and inflammatory tissues.
(§2) BioMAP systems are constructed with one or more primary cell types from healthy human donors, with stimuli (such as cytokines or growth factors) added to capture relevant signaling networks that naturally occur in human tissue or pathological conditions. Vascular biology is modeled in both a Th1 (3C system) and a Th2 (4H system) inflammatory environment, as well as in a Th1 inflammatory state specific to arterial smooth muscle cells (CASM3C system). Additional systems recapitulate aspects of the systemic immune response including monocyte-driven Th1 inflammation (LPS system) or T cell stimulation (SAg system), chronic Th1 inflammation driven by macrophage activation (lMphg system) and the T cell-dependent activation of B cells that occurs in germinal centers (BT system). The BE3C system (Th1) and the BF4T system (Th2) represent airway inflammation of the lung, while the MyoF system models myofibroblast-lung tissue remodeling. Lastly, skin biology is addressed in the KF3CT system modeling Th1 cutaneous inflammation and the HDF3CGF system modeling wound healing.
(§3) Each test agent generates a signature BioMAP profile that is created from the changes in protein biomarker readouts within individual system environments. Biomarker readouts (7-17 per system) are selected for therapeutic and biological relevance, are predictive for disease outcomes or specific drug effects and are validated using agents with known mechanism of action (MoA). Each readout is measured quantitatively by immune-based methods that detect protein (e.g., ELISA) or functional assays that measure proliferation and viability. BioMAP readouts are diverse and include cell surface receptors, cytokines, chemokines, matrix molecules and enzymes.
(§4) Activated BioMAP systems were incubated with each compound for 24 to 72 hours. Protein-based biomarkers from activated cell systems were measured and compared with non-treated control systems.

[2] = tested on: BT: Peripheral blood mononuclear cells, B cells (α-IgM, TCR ligands); assay: BioMAP BT system; conditions: BT system; at the compound's active concentration
Description: Anti-inflammatory phenotypic profiling was conducted across 12 human primary cell-based systems as part of DiscoverX's BioMAP Diversity Plus program. These systems are designed to model complex human tissue and disease biology of the vasculature, skin, lung, and inflammatory tissues. Quantitative measurements of biomarker activities across this broad panel were used to assess each biochemical's anti-inflammatory activity at four concentrations ([…] and 2.2, 6.7 and 20 μM). […] Protein-based biomarkers from activated cell systems were measured and compared with controls. Biomarker activities were annotated when 2 or more consecutive concentrations change in the same directions relative to vehicle controls, were outside of the significance envelope and had at least one concentration with an effect size>20% (log 10 ratio)>0.1.
In the first system, human primary peripheral blood mononuclear cells and venular endothelial cells were stimulated with lipopolysaccharide (LPS) and incubated with the test agent, drug control, or vehicle control for 24 hours. In the second system, peripheral blood mononuclear cells and B cells were stimulated with α-IgM and T cell receptor ligands and incubated with the test agent, drug control, or vehicle control for 24 hours. In both systems, a negative, non-stimulated system was also included.
The Diversity PLUS panel allows test agent characterization in an unbiased way across a broad set of systems modeling various human disease states. These systems are designed to model complex human tissue and disease biology of the vasculature, skin, lung, and inflammatory tissues. Quantitative measurements of 148 biomarker activities across this broad panel, along with comparative analysis of biological activities from known bioactive agents, were used to predict and compare the efficacy and function of each selected compound at selected concentrations (6.7 and/or 20 μM).
as §2
as §3, with “enzymes. In total, the Diversity PLUS panel contains 148 biomarker readouts that capture biological changes that occur within the physiological context of the particular BioMAP system. […]” for “enzymes.”

[3] = tested on: 3C system (Th1 vascular biology); assay: BioMAP 3C system; conditions: at the compound's active concentration
From the text: The Diversity PLUS panel allows test agent characterization in an unbiased way across a broad set of systems modeling various human disease states. These systems are designed to model complex human tissue and disease biology of the vasculature, skin, lung, and inflammatory tissues. […] BioMAP systems are constructed with one or more primary cell types from healthy human donors, with stimuli (such as cytokines or growth factors) added to capture relevant signaling networks that naturally occur in human tissue or pathological conditions. […] Each test agent generates a signature BioMAP profile that is created from the changes in protein biomarker readouts within individual system environments. Biomarker readouts (7-17 per system) are selected for therapeutic and biological relevance, are predictive for disease outcomes or specific drug effects and are validated using agents with known mechanism of action (MoA). Each readout is measured quantitatively by immune-based methods that detect protein (e.g., ELISA) or functional assays that measure proliferation and viability. BioMAP readouts are diverse and include cell surface receptors, cytokines, chemokines, matrix molecules and enzymes. In total, the Diversity PLUS panel contains 148 biomarker readouts that capture biological changes that occur within the physiological context of the particular BioMAP system. […]

[4] = tested on: CASM3C: Coronary artery smooth muscle cells (IL-1β, TNFα, IFNγ); assay: BioMAP CASM3C system; conditions: CASM3C system; at the compound's active concentration
From the text: as §1, §2, §3, §4

In the case of O=C(O)CNC(=O)c1ccccc1 [hippurate], the “MMP-1, log10 reduction vs nontreated controls” value [1] is reported as −0.14 log10, the “Secreted IgG, log10 reduction vs nontreated controls” value [2] is reported as −0.21 log10 and the “Tissue factor, log10 reduction vs nontreated controls” value [3] is reported as −0.10 log10. The “Thrombomodulin, log10 reduction vs nontreated controls” value [4] was −0.16 log10.
